Assay results from the supplement of paper PMC10307832.

How the values were obtained:
Experiment in all cases: relative viability (nuclei count vs DMSO), 5 days (fraction); higher = more cells survive
[1] = compound: COc1cc(Nc2ncc(F)c(Nc3ccc4c(n3)NC(=O)C(C)(C)O4)n2)cc(OC)c1OC [R406] + CC(C)C[C@H](NC(=O)[C@H](Cc1ccccc1)NC(=O)c1cnccn1)B(O)O [Bortezomib] (partner 0.002 µM)
In short: (§1)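 A single step with final 0.05% Triton X-100, 1% formaldehyde and 1 ug/ml Hoechst fixed the cells and stained nuclei 5 days after treatment. Lung cancer cell lines in 1536-well plates had been treated by pin tool the day after seeding with one drug alone or a fixed anchor-drug dose plus five library-drug doses (not always all listed) in √10 steps, and nuclei were counted on 4× images. Relative viability is the ratio of nuclei in treated wells to nuclei in vehicle wells, taken as the median of duplicate plates.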

[2] = compound: COc1cc(Nc2ncc(F)c(Nc3ccc4c(n3)NC(=O)C(C)(C)O4)n2)cc(OC)c1OC [R406] + C[C@@H](Oc1cc(-c2cnn(C3CCNCC3)c2)cnc1N)c1c(Cl)ccc(F)c1Cl [Crizotinib] (partner 1 µM)
In short: as §1

[3] = compound: O=C(/C=C/c1cccnc1)NCCCCC1CCN(C(=O)c2ccccc2)CC1 [Daporinad] + CC(C)C[C@H](NC(=O)[C@H](Cc1ccccc1)NC(=O)c1cnccn1)B(O)O [Bortezomib] (partner 0.002 µM)
In short: as §1

[4] = compound: O=C(/C=C/c1cccnc1)NCCCCC1CCN(C(=O)c2ccccc2)CC1 [Daporinad] + NC(=O)Nc1cc(-c2cccc(F)c2)sc1C(=O)N[C@H]1CCCNC1 [AZD7762] (partner 0.2 µM)
In short: as §1

Cell Line	relative viability ([1]; first compound 0.08 µM)	relative viability ([1]; first compound 0.253 µM)	relative viability ([1]; first compound 0.8 µM)	relative viability ([1]; first compound 8 µM)	relative viability ([2]; first compound 0.08 µM)	relative viability ([2]; first compound 0.253 µM)	relative viability ([2]; first compound 0.8 µM)	relative viability ([2]; first compound 8 µM)	relative viability ([3]; first compound 0.0005 µM)	relative viability ([3]; first compound 0.001581 µM)	relative viability ([3]; first compound 0.005 µM)	relative viability ([3]; first compound 0.01581 µM)	relative viability ([4]; first compound 0.0005 µM)	relative viability ([4]; first compound 0.005 µM)	relative viability ([4]; first compound 0.01581 µM)	relative viability ([1]; first compound 2.53 µM)	relative viability ([2]; first compound 2.53 µM)	relative viability ([4]; first compound 0.001581 µM)
HCC-366	1.08	1.02	1.3	0.428	0.581	0.794	0.81	0.294	0.971	1.1	1.12	1.04	0.255	0.247	0.268	–	–	–
HCC-827	1.06	1.12	1.12	1.02	0.975	0.952	0.899	0.409	1.06	0.965	1.14	1.13	0.219	0.263	0.287	1.11	0.841	0.23
HOP-62	0.835	0.656	0.559	0.82	1.12	1.21	0.844	1.17	–	0.84	0.962	0.26	0.406	0.665	0.262	1.02	1.1	0.423
IA-LM	0.878	0.841	0.815	0.705	0.972	1.21	1.01	0.657	0.746	0.807	0.872	0.491	–	–	–	0.904	1.11	–
LC-2-ad	0.973	1.09	0.987	0.133	0.436	0.456	0.455	0.357	0.978	1.07	0.952	0.844	0.762	0.79	0.964	0.111	0.381	0.88
LCLC-97TM1	0.718	0.659	0.793	0.207	0.418	0.443	0.38	0.244	0.302	0.604	0.657	0.533	0.209	0.238	0.195	0.489	0.29	0.274
LK-2	–	–	–	–	0.275	0.224	0.178	0.259	–	–	–	–	0.523	0.199	0.141	–	0.255	0.36
NCI-H358	–	–	–	–	0.639	0.587	0.498	0.221	–	–	–	–	0.473	0.506	0.67	–	0.434	0.584
NCI-H520	0.604	0.804	0.971	0.157	0.735	1.09	0.875	0.269	0.624	0.686	0.223	0.151	–	–	–	0.209	0.58	–
NCI-H522	–	–	–	–	–	–	–	–	–	–	–	–	0.808	0.816	0.538	–	–	1.13
NCI-H661	0.769	0.877	0.945	0.469	–	1.01	1.02	1.14	0.941	0.867	0.659	0.477	–	–	–	0.721	0.882	–
NCI-H1299	1	1.02	1.02	1.04	0.941	0.946	0.977	0.543	1.02	1.02	1.04	1.04	–	–	–	1.04	1.03	–
